Values of other authors as cited in patent US20230371513A1, “PHOTOSTABLE COMPOSITION AND METHOD OF REDUCING OR CONTROLLING WEED POPULATION APPLYING SAID COMPOSITION” (UPL DO BRASIL INDUSTRIA E COMERCIO DE INSUMOS AGROPECUARIOS …, priority 2020, published 2023).

Settings: buffer

Compound: Cc1nn(-c2cc(NS(C)(=O)=O)c(Cl)cc2Cl)c(=O)n1C(F)F [sulfentrazone]
- half-life, direct photolysis: 1 to 12 h
